Data published in patent US12324893B2, “Triptan microporation delivery system” (PassPort Technologies, Inc., priority 2019, dated 2025).

Assays:
[1] = Administration route study in hairless rats (Example 4); assay type: in vivo; conditions: Group 2: 2 mg zolmitriptan
[2] = Administration route study in guinea pigs (Example 5); assay type: in vivo; conditions: for AUC / Cmax / Tmax: guinea pig, blood
Method: This example describes an administration route study in guinea pigs using the same method mentioned in Example 4. In this study, base refers to Zomitriptan.
In this study, five groups of guinea pigs were tested under the following conditions: (1) Group 1 (10 mg base/4 ml, oral route); (2) Group 2 (5 mg base/2 ml, oral route); (3) Group 3 (2 mg base/4 mL, oral route); (4) Group 4 (2.0 mg base/cm^2, transdermal microporation); and (5) Group 5 (2 mg/200 μL, SubQ). The given bioavailability of Tables 6 is relative bioavailability against subcutaneous injection.

[3] = tested on: skin; experiment: Skin irritation at different poration conditions (Examples 7-9); assay type: in vivo, guinea pigs
Method: A skin irritation examination was performed following the patch removal. The skin irritation examination scale was an assessment of the skin directly under the matrix.
This example describes various effects of filament density. To investigate the effect of filament density on PK profile and side effects (pain by poration and skin irritation), these studies were conducted. The filament density mainly affects the area to be utilized for the transfer of body fluid and ingredients in between skin and patch. The range of filament density was 100 filaments/cm^2 to 400 filaments/cm^2, and the poration energy was from 3 to 4 mJ/filament.
This example describes various effects to heating energy. The poration energy is related to the pore shape such as depth and width.
This example describes the selection of a desirable filament array size. Assuming the higher dose than 2 mg dose with the conditions 400 filaments/cm^2 filament density and 4 or 5 mJ/filament energy, filament array size may need to be made bigger. The range of dose was 0.5 to 4 mg, and the range of filament array size was 1.0 to 2.0 cm^2.

[4] = rat, blood, inhaled or intranasal
[5] = Group 1: 10 mg base/4 ml, oral route
[6] = Group 2: 5 mg base/2 ml, oral route
[7] = Group 3: 2 mg base/4 mL, oral route
[8] = topical or ocular, Group 4: 2.0 mg base/cm^2, transdermal microporation
[9] = Table 13 # 1: 100 filaments/cm^2, 3 mJ/filament, 1.0 cm^2, 2.00 mg patch
[10] = Table 13 # 2: 200 filaments/cm^2, 3 mJ/filament, 1.0 cm^2, 2.00 mg patch
[11] = Table 13 # 3: 400 filaments/cm^2, 3 mJ/filament, 1.0 cm^2, 2.00 mg patch
[12] = Table 13 # 4: 100 filaments/cm^2, 4 mJ/filament, 1.0 cm^2, 2.00 mg patch
[13] = Table 13 # 5: 200 filaments/cm^2, 4 mJ/filament, 1.0 cm^2, 2.00 mg patch
[14] = Table 13 # 6: 400 filaments/cm^2, 4 mJ/filament, 1.0 cm^2, 2.00 mg patch
[15] = Table 15 # 1: 400 filaments/cm^2, 2 mJ/filament, 1.0 cm^2, 2.00 mg patch
[16] = Table 15 # 2: 400 filaments/cm^2, 3 mJ/filament, 1.0 cm^2, 2.00 mg patch
[17] = Table 15 # 3: 400 filaments/cm^2, 4 mJ/filament, 1.0 cm^2, 2.00 mg patch
[18] = Table 15 # 4: 400 filaments/cm^2, 5 mJ/filament, 1.0 cm^2, 2.00 mg patch
[19] = Table 17 #1: dose 0.50 mg, 4 mJ/filament, 1.0 cm^2, 400 filaments/cm^2
[20] = Table 17 # 2: dose 2.00 mg, 4 mJ/filament, 1.0 cm^2, 400 filaments/cm^2
[21] = Table 17 # 3: dose 3.00 mg, 4 mJ/filament, 1.0 cm^2, 400 filaments/cm^2
[22] = Table 17 # 5: dose 4.00 mg, 4 mJ/filament, 2.0 cm^2, 400 filaments/cm^2
[23] = Table 17 # 6: dose 4.00 mg, 5 mJ/filament, 1.5 cm^2, 400 filaments/cm^2

- BA ([1]; intranasal administration, absolute bioavailability against IV injection): 12.0%
- AUC [1, 4]: 239 ng·h/mL
- Cmax [1, 4]: 127 ng/mL
- Tmax [1, 4]: 135 min
- BA ([2]; Group 1: 10 mg base/4 ml, oral route, relative bioavailability against subcutaneous injection): 16.2%
- BA ([2]; Group 2: 5 mg base/2 ml, oral route, relative bioavailability against subcutaneous injection): 8.3%
- BA ([2]; Group 3: 2 mg base/4 mL, oral route, relative bioavailability against subcutaneous injection): 4.5%
- BA ([2]; Group 4: 2.0 mg base/cm^2, transdermal microporation, relative bioavailability against subcutaneous injection): 84.2%
- BA ([2]; Group 5: 2 mg/200 μL, SubQ, relative bioavailability against subcutaneous injection (reference)): 100.0%
- AUC [2, 5]: 1390 ng·h/mL
- Cmax [2, 5]: 910 ng/mL
- Tmax [2, 5]: 26.4 min
- AUC [2, 6]: 353 ng·h/mL
- Cmax [2, 6]: 259 ng/mL
- Tmax [2, 6]: 33.6 min
- AUC [2, 7]: 77 ng·h/mL
- Cmax [2, 7]: 25 ng/mL
- Tmax [2, 7]: 19.8 min
- AUC ([2]; sc, Group 5: 2 mg/200 μL, SubQ): 1710 ng·h/mL
- Cmax ([2]; sc, Group 5: 2 mg/200 μL, SubQ): 3880 ng/mL
- Tmax ([2]; sc, Group 5: 2 mg/200 μL, SubQ): 5.4 min
- Cmax [2, 8]: 864 ng/mL
- Tmax [2, 8]: 30 min
- AUC ([2]; topical or ocular, Group 4: 2.0 mg base/cm^2, transdermal microporation (400 pores/cm^2, 5.2 mJ/filament)): 1440 ng·h/mL
Compound: CN(C)CCc1c[nH]c2ccc(C[C@H]3COC(=O)N3)cc12 [Zolmitriptan]
- Skin irritation relief ± SD (Days to recover to score 1) [3, 9]: 0.0 ± 0.0 days
- Skin irritation ± SD (Just after patch removal) [3, 9]: 0.8 ± 0.3
- Skin irritation relief ± SD (Days to recover to score 1) [3, 10]: 1.8 ± 0.8 days
- Skin irritation ± SD (Just after patch removal) [3, 10]: 2.2 ± 0.4
- Skin irritation relief ± SD (Days to recover to score 1) [3, 11]: 2.8 ± 1.3 days
- Skin irritation ± SD (Just after patch removal) [3, 11]: 1.9 ± 0.3
- Skin irritation relief ± SD (Days to recover to score 1) [3, 12]: 1.8 ± 0.5 days
- Skin irritation ± SD (Just after patch removal) [3, 12]: 1.6 ± 0.3
- Skin irritation relief ± SD (Days to recover to score 1) [3, 13]: 3.0 ± 1.9 days
- Skin irritation ± SD (Just after patch removal) [3, 13]: 2.1 ± 0.7
- Skin irritation relief ± SD (Days to recover to score 1) [3, 14]: 3.2 ± 0.8 days
- Skin irritation ± SD (Just after patch removal) [3, 14]: 2.1 ± 0.3
- Skin irritation relief ± SD (Days to recover to score 1) [3, 15]: 2.3 ± 1.2 days
- Skin irritation ± SD (Just after patch removal) [3, 15]: 1.8 ± 0.3
- Skin irritation relief ± SD (Days to recover to score 1) [3, 16]: 2.8 ± 1.3 days
- Skin irritation ± SD (Just after patch removal) [3, 16]: 1.9 ± 0.3
- Skin irritation relief ± SD (Days to recover to score 1) [3, 17]: 3.2 ± 0.8 days
- Skin irritation ± SD (Just after patch removal) [3, 17]: 2.1 ± 0.3
- Skin irritation relief ± SD (Days to recover to score 1) [3, 18]: 2.6 ± 1.7 days
- Skin irritation ± SD (Just after patch removal) [3, 18]: 2.3 ± 0.3
- Skin irritation relief ± SD (Days to recover to score 1) [3, 19]: 2.5 ± 1.0 days
- Skin irritation ± SD (Just after patch removal) [3, 19]: 1.6 ± 0.5
- Skin irritation relief ± SD (Days to recover to score 1) [3, 20]: 3.2 ± 0.8 days
- Skin irritation ± SD (Just after patch removal) [3, 20]: 2.1 ± 0.3
- Skin irritation relief ± SD (Days to recover to score 1) [3, 21]: 3.0 ± 0.5 days
- Skin irritation ± SD (Just after patch removal) [3, 21]: 2.0 ± 0.0
- Skin irritation ± SD (Just after patch removal) ([3]; Table 17 # 4: dose 4.00 mg, 4 mJ/filament, 1.5 cm^2, 400 filaments/cm^2): 2.1 ± 0.3
- Skin irritation relief ± SD (Days to recover to score 1) [3, 22]: 4.3 ± 0.9 days
- Skin irritation ± SD (Just after patch removal) [3, 22]: 2.0 ± 0.0
- Skin irritation relief ± SD (Days to recover to score 1) [3, 23]: 5.5 ± 1.9 days
- Skin irritation ± SD (Just after patch removal) [3, 23]: 1.9 ± 0.3
